We go through 3 compounds from PMC6749236, “Synthesis of Novel 2-(Het)arylpyrrolidine Derivatives and Evaluation of Their Anticancer and Anti-Biofilm Activity” (Molecules, 2019).

Molecules are shown by their SMILES. Values joined by “and” are separate entries in the source; they are usually repeats but may differ in a detail not shown here. Identical values can stand only once. Marks after values point to notes of the source that are not given here.

One data set relates to M-Hela. Description: Cytotoxicity assay (Cytell Cell Imaging, DAPI/propidium iodide), cancer cell line. The conditions noted are these: Homo sapiens, M-HeLa, read-out: IC50 Cancer Cell Line M-Hela. The data set is classed as cell-based.
The test system of a further data set is Chang liver cell line. Description: Cytotoxicity assay (Cytell Cell Imaging), normal cell line. The conditions noted are these: Homo sapiens, read-out: IC50 Normal Cell Line Chang Liver. The data set is classed as cell-based.
The test system of data set [1] is Acinetobacter calcoaceticus VKPM B-10353. Description: Biofilm formation, crystal violet assay. The data set is classed as cell-based. As to conditions: A. calcoaceticus VKPM B-10353; for Biofilm Formation: control = 100%; for Biofilm formation with respect to control, over the investigated concentrations: 1 × 10^−9–1 × 10^−5 M. Here is the method:
(§1) Bacterial strains and cultivation conditions. For the detection of biofilms, formation strains Vibrio aquamarinus DSM 26054 and Acinetobacter calcoaceticus VKPM B-10353 were used. These strains form biofilms, making them useful for studying biofilms.
(§2) The bacterial strains Acinetobacter calcoaceticus VKPM B-10353, E. coli MG1655 (pRecA-lux), and E. coli MG1655 (pSoxS-lux) were cultivated in Luria–Bertani (LB) medium under constant shaking to early exponential phase at 37 °C. Cells were used immediately for stress induction tests. One hundred micrograms of ampicillin per milliliter were added into LB medium at cultivation of E. coli MG1655 (pRecA-lux) and E. coli MG1655 (pSoxS-lux). Strain V. aquamarinus DSM 26054 was grown in LB medium supplemented with 3% NaCl.
(§3) The test compounds were dissolved in DMSO to the concentration of 1 × 10^−2 M. Then, they were diluted with ethanol. The control solutions were analogous dilutions of DMSO in ethanol. The tested compounds were also compared with the standard antibiotic azithromycin. Azithromycin was dissolved in DMSO to the concentration of 5 × 10^−3 M and then diluted with deionized water.
(§4) Test system for evaluation of biofilms production. To quantify the formation of biofilms, the crystal violet assay was used, with some modifications. The necessary concentrations of the test compounds were prepared as described above.
(§5) V. aquamarinus DSM 26054 was cultivated for 24 h in LB medium supplemented with 3% NaCl in the Innova 40R shaker incubator (New Brunswick Scientific, USA) at 25 °C and 200 rpm. A. calcoaceticus VKPM B-10353 was cultivated for 24 h in LB medium in the Innova 40R shaker incubator (New Brunswick Scientific, Enfield, CT, USA) at 30 °C and 200 rpm. Then, the suspensions of the daily culture of V. aquamarinus DSM 26054 and A. calcoaceticus VKPM B-10353 were diluted with LB medium supplemented with 3% NaCl to the density of 1 × 10^8 cells/mL.
(§6) The resulting suspension (180 μL) was added to the wells of a polystyrene microplate (Nuova Aptaca, Canelli, Italy). To some of the wells, 20 μL of the test substances at various concentrations were added. Since solvents used could also influence the biofilm formation, 20 μL of the appropriate solvent was added to the other part of the wells at same dilutions (control). Six replicates were done for each treatment and control. The microplate was covered with a lid and wrapped with Parafilm (Bemis Company, Inc., Oshkosh, WI, USA).
(§7) After incubation at 25 °C for 72 h, biofilms were stained. The contents in the wells were removed by means of a dispenser. The wells were then carefully washed three times with 250 μL of sterile saline. The microplates were shaken to remove all non-adherent bacteria. Biofilms were fixed with 200 μL of 96% ethanol for 15 min. After the microplates had dried in air, 200 μL of 0.5% crystal violet was introduced into the wells. After 10 min, the dye was removed. The excess dye was removed by washing with water three times. After the microplates were air-dried, the dye in the wells bound to biofilms was dissolved with 200 μL of 96% ethanol. The extraction level (absorption) of crystal violet by ethanol was measured after 60 minutes at a wavelength of 570 nm using a FLUOstar Omega microplate reader (BMG Labtech, Offenburg, Germany) in optical density units (OD570). The intensity of biofilm formation directly corresponds to the intensity of staining of the contents of the wells with the dye. Biofilm formation was determined by the difference between the mean OD readings obtained in the presence of compounds and the control.
(§8) Each experiment was performed in triplicate. The values were expressed as mean + SD. Student’s t-test was used to compare these values. Differences were considered statistically significant at p < 0.05.

For data set [2], the system named is Vibrio aquamarinus DSM 26054. Briefly: Biofilm formation, crystal violet assay. The data set is classed as cell-based. The conditions noted are these: V. aquamarinus DSM 26054, control = 100%. How it is done: as §1, §2, §3, §4, §5, §6, §7, §8
For data set [3], the system named is Escherichia coli MG1655 (pRecA-lux). Briefly: Genotoxicity, bacterial lux-biosensor. The data set is classed as cell-based.
From the text: (§9) E. coli MG1655 (pRecA-lux) was used for the evaluation of the genotoxicity of the synthesized compounds. The biosensor with the PrecA promotor fixes the presence of the factors causing damage of DNA in a cell. The biosensor E. coli MG1655 (pSoxS-lux) was used for the evaluation of prooxidant activity. The biosensor with the PsoxS promoter fixes the production of superoxide anion and NO [75]. Bioluminescent strains were obtained by the transformation of E. coli MG1655 by hybrid plasmids pRecA-lux, pSoxS-lux. The gene cassette luxCDABE Photorhabdus luminescens under the control PrecA promoters was used in this biosensor. This plasmid was created on the basis of pBR322 and contained a selective marker of ampicillin resistance (Amp gene). The strains were kindly furnished by Manukhov I.V., Federal State Unitary Enterprise “GosNIIGenetika”).
as §2
(§10) Biosensors assay procedure. The detailed protocol of toxicity testing by means of a bacterial lux-biosensors is described in the article.
(§11) Calculation. The criterion of toxic influence was bioluminescence intensity change of the test object in the researched sample in comparison with the control sample.
(§12) The induction factor (I) was defined as the relation of luminescence intensity of a lux-biosensor suspension containing tested sample (Lc) to the luminescence intensity of a lux-biosensor control suspension (Lk): I = Lc/Lk.
If at significant differences from control induction factor values were ≤2, the detected genotoxic effect was evaluated as “weak”, if they were in the range from 2 to 10 as “medium”, and above 10 as “strong”. All the experiments were carried out three times independently.
(§13) Difference reliability of bioluminescence in experiment from control value was estimated by t-criterion with the help of Excel software. The conclusions about sample toxicity were made at p < 0.05.

Data set [4] relates to E. coli MG1655 (pSoxS-lux). Description: Prooxidant activity, bacterial lux-biosensor. The data set is classed as cell-based, Escherichia coli.
From the text: as §9, §2, §10, §11, §12, §13

Regarding `Cc1cc(O)c(C2CCCN2C(=O)Nc2ccc(Br)cc2)c(=O)o1` (centres unmarked) [7d, N-(4-Bromophenyl)-2-(4-hydroxy-6-methyl-2-oxo-2H-pyran-3-yl)pyrrolidine-1-carboxamide], the IC50 with M-Hela and in the data set with Chang liver cell line was > 100 µM each time.
Turning to `CC[C@H]1OC(=O)[C@H](C)[C@@H](O[C@H]2C[C@@](C)(OC)[C@@H](O)[C@H](C)O2)[C@H](C)[C@@H](O[C@@H]2O[C@H](C)C[C@H](N(C)C)[C@H]2O)[C@](C)(O)C[C@@H](C)CN(C)[C@H](C)[C@@H](O)[C@]1(C)O` [Azithromycin, reference compound], the “Biofilm Formation” value in data set [1] (1 × 10^−5 M) is 101.79%; in data set [1] (1 × 10^−6 M), 106.07%; in data set [1] (1 × 10^−7 M), 105.71%; in data set [1] (1 × 10^−8 M) it was 96.07%; in data set [1] (1 × 10^−9 M), 95.00%; in data set [2] (1 × 10^−5 M), 81.5% and 81.50 * %. Moreover, the “Biofilm Formation” value in data set [2] (1 × 10^−6 M) is listed as 103.80%; in data set [2] (1 × 10^−7 M) it was 99.39%; in data set [2] (1 × 10^−8 M), 102.43%; in data set [2] (1 × 10^−9 M), 103.42%. Further, the “Biofilm formation with respect to control, over the investigated concentrations” value in data set [1] was “not detected”.
With `O=[N+]([O-])c1c(Cl)cc2c(no[n+]2[O-])c1Nc1cccc(O)c1` [compound 4, 6-Chloro-4-((3-hydroxyphenyl)amino)-5-nitrobenzo[c][1,2,5]oxadiazole 1-oxide], the “Biofilm Formation” value in data set [1] (1 × 10^−5 M) is reported as 149.22* %; in data set [1] (1 × 10^−6 M), 97.99%; in data set [1] (1 × 10^−7 M), 78.63 * %; in data set [1] (1 × 10^−8 M), 62.12 * %; in data set [1] (1 × 10^−9 M), 86.67 * %; in data set [2] (1 × 10^−5 M) it was 96.57%. The “Biofilm Formation” value in data set [2] (1 × 10^−6 M) is reported as 43.56 * %; in data set [2] (1 × 10^−7 M), 11.34 * %; in data set [2] (1 × 10^−8 M) it was 9.31 * %; in data set [2] (1 × 10^−9 M), 66.58%. Moreover, the “Biofilm formation with respect to control, over the investigated concentrations” value in data set [1] was “both suppressing and stimulating”. The “DNA-damaging property, in words” value in data set [3] (10^−9–10^−5 M, with and without S9) was “do not belong to the class of DNA-damaging substances”. For the same compound, the “Genotoxicity (induction factor, I)” value in data set [3] (with metabolic activation (+S9), 10^−5 M) is 1.11 ± 0.01; in data set [3] (with metabolic activation (+S9), 10^−6 M), 1.28 ± 0.04; in data set [3] (with metabolic activation (+S9), 10^−7 M), 1.18 ± 0.01; in data set [3] (with metabolic activation (+S9), 10^−8 M) it was 1.11 ± 0.02; in data set [3] (with metabolic activation (+S9), 10^−9 M) it was 1.19 ± 0.01; in data set [3] (without metabolic activation (-S9), 10^−5 M), 1.10 ± 0.00. In addition, the “Genotoxicity (induction factor, I)” value was determined as 1.27 ± 0.01 in data set [3] (without metabolic activation (-S9), 10^−6 M); 1.14 ± 0.02 in data set [3] (without metabolic activation (-S9), 10^−7 M); 1.27 ± 0.07 in data set [3] (without metabolic activation (-S9), 10^−8 M); 1.21 ± 0.04 in data set [3] (without metabolic activation (-S9), 10^−9 M). Also, the “Prooxidant activity (induction factor)” value in data set [4] (10^−5 M) came to 1.64 ± 0.04; in data set [4] (10^−6 M), 1.54 ± 0.07; in data set [4] (10^−7 M) it was 1.74 ± 0.14; in data set [4] (10^−8 M), 2.08 ± 0.05; in data set [4] (10^−9 M), 1.85 ± 0.10. Moreover, in data set [4] (10^−9–10^−8 M and 10^−7–10^−5 M), the “effect of superoxide-anion radical or NO level increase, in words” value was “weak effect”.

In general, IC50 refers to the midpoint of a concentration-inhibition curve.
